From patent publication US7226623B2, “In vitro and in vivo anti-inflammatory effects of a sesquiterpene lactone extract from chicory (Cichorium intybus L.)” (Rutgers, The State University of New Jersey, priority 2005, dated 2007)

Tests used:
Wistar rats = assay: Carrageenan-induced rat paw edema; format: in vivo; settings: indomethacin (15 mg/kg)
Protocol: Groups of 5 adult male and female Wistar rats with body weights from 136 g to 170 g were used for this study. Rats were housed five animals per cage in a room kept at 24-26° C. and fed ad libitium. Before the experiment began, rat paw sizes were recorded by measuring paw volume three times on each animal using a plethysmometer (Ugo Basile, Comerio VA, Italy). The values were averaged to give a baseline paw size value. To start the experiment, animals were given a subcutaneous injection of 1% carrageenan (100 μl; Sigma, St. Louis, Mo.) in the area of the back paw to induce an acute inflammatory reaction (paw edema). One hour after carrageenan injection, rats were orally gavaged with chicory extract or vehicle control (4% apricot kernel balm). Paw size was measured at 3 hours, 5 hours, and 24 hours after injection. The increase in paw edema at each time point was determined by comparison with paw volume measured pre-injection. Inhibition of edema was calculated by comparison with vehicle control at the same time point.

BALB/c mice = assay: Collagen induced arthritis (type II collagen mAbs with LPS challenge); format: in vivo; settings: indomethacin 3 mg/kg oral
Protocol: Groups of 5 BALB/c mice weighing 25±2 g were used for this study. A 4 mg/mouse combination of 4 monoclonal antibodies (mAbs) against type II collagen (D8, F10, DI-2G, and A2; IBL Co., Japan) was administered to mice intravenously on day 0 of the study to induce an inflammatory reaction mimicking rheumatoid arthritis. On day 3 of the study, mice were given LPS ([…]) intravenously to potentiate the inflammatory effect. One hour after LPS administration, mice were dosed orally with chicory extract (200 mg/kg), indomethacin (3 mg/kg; Sigma, St. Louis, Mo.), or vehicle control (1% carboxymethylcellulose, CMC; Sigma, St. Louis, Mo.). Mice were dosed with chicory extract or vehicle for two more consecutive days. Volumes of both hind paws were measured using a plethysmometer on days 0, 5, 7, 10, 14, and 17. The increase in paw edema at each time point was determined by comparison with paw volume measured on day 0. Inhibition of edema was calculated by comparison with vehicle control at the same time point. This study was a GLP study (#1038342) performed by MDS Pharma Services (Taiwan).

[1] = tested on: nitric oxide production by LPS-induced macrophages; assay: Griess assay for NO production; format: cell-based, murine; settings: aspirin 10 μM, LPS 1 μg/mL, 24 hours
Protocol: Down-regulation of various pro-inflammatory genes, including iNOS, IL1β and TNF-α, can reduce nitric oxide production by macrophages. In order to confirm that changes in pro-inflammatory gene expression were affecting cellular function, the Griess assay was performed to indirectly measure nitric oxide production by LPS-induced macrophages by measuring nitrite. For the assay, RAW cells were plated in a 96-well plate at a minimum density of 5×10^3 cells/well and grown for 24 hours. […] After 24 hours, conditioned media (50 μl) was removed and immediately mixed with 100 μl of Griess reagent ([…], 1% naphthalene-ethylenediamine dihydrochloride in 5% H3PO4). After incubation for 15 minutes at room temperature, the samples were read at 550 nm using a microplate spectrophotometer (Molecular Devices, Sunnyvale, Calif.). Data for each treatment were normalized based on results from an MTT cell proliferation assay.

Compound | Rat Paw Edema, inhibition of edema vs vehicle control (Wistar rats; 3 h after carrageenan) | Rat Paw Edema, inhibition of edema vs vehicle control (Wistar rats; 5 h after carrageenan) | Rat Paw Edema, inhibition of edema vs vehicle control (Wistar rats; 24 h after carrageenan) | Mouse arthritis % inhibition of edema (BALB/c mice; day 5) | Mouse arthritis % inhibition of edema (BALB/c mice; day 7) | Mouse arthritis % inhibition of edema (BALB/c mice; day 10) | Mouse arthritis % inhibition of edema (BALB/c mice; day 14) | Mouse arthritis % inhibition of edema (BALB/c mice; day 17) | Griess assay % LPS control [1]
COc1ccc2c(c1)c(CC(=O)O)c(C)n2C(=O)c1ccc(Cl)cc1 [indomethacin] | 43% | 36% | 51% | 83% | 81% | 82% | 77% | 85% | –
CC(=O)Oc1ccccc1C(=O)O [aspirin] | – | – | – | – | – | – | – | – | 69%
